Common to all, as to type: cell-based, human
Assay [1] relates to γ-secretase. The assay is described as follows: Transiently transfected HEK293 cells (SP3-C55-GAL4/VP16 + pGL2-MRG5 luciferase reporter), luciferase activity. To be noted: HEK293 transiently co-transfected with SP3-C55-GAL4/VP16 vector and pGL2-MRG5 luciferase reporter vector; read-out: IC50, inhibition of luciferase activity and Aβ-production. As to the method: (§1) HEK293 cells were co-transfected with the SP3-C55-GAL4/VP16 vector (0.03 μg) and the pGL2-MRG5 luciferase reporter vector (1 μg) in Multi-Well 12 plates.
(§2) Luciferase activity was quantified by the Bright-Glo Luciferase Assay kit (Promega). Aβ in the cell medium was quantified by ELISA, using the antibodies 4G8 and 6E10 (from Senetek), as described in Example 11. These antibodies are specific for amino acids 17-24 (4G8) and 1-17 (6E10) of the Aβ-peptide.

The test system of assay [2] is γ-secretase. Kind of assay: Transiently transfected HEK293 cells, Aβ in the cell medium by ELISA (4G8/6E10). As to conditions: HEK293 transiently co-transfected; Aβ in cell medium quantified by ELISA.
Description: For expression in mammalian cells, the signal peptide in SP2-C-GAL4/VP16-100 was replaced, as described in Example 8, with a mammalian signal peptide derived from the basal membrane protein BM40, which is known for high level expression (SP3; SEQ ID NO. 13). Processing of γ-secretase was monitored by quantifying the secretion of Aβ into the culture medium. The secreted Aβ was detected by a sandwich ELISA using monoclonal antibodies 6E10 and biotinylated 4G8 (Senetek PLC, Napa, Calif., USA; cf. Kim et al., 1990) as capture and detection antibodies, respectively.
as §1, §2

In assay [3] the test system is γ-secretase. The assay is described as follows: Stably transfected HEK293 cell clone (SP3-C55-GAL4/VP16 + MRG5-luciferase), luciferase activity. To be noted: stably double-transfected HEK293 clone, 24 h treatment; read-out: IC50, inhibition of luciferase activity. The method, then: HEK293 cells (Human Embryonic Kidney cell line, (ATCC)) were co-transfected with the plasmid SP3-C55-GAL4/VP16 and the luciferase reporter plasmid PGL2-MRG5(described in Example 2).
Subsequently, stable cell lines were selected by incubation with 400 μg/ml Geneticin (GibcoBRL) to select for Neomycin resistant clones and thereafter characterized for stable expression of SP3-C55-GAL4/VP16 and luciferase.
A clone of HEK293 cells that stably express both the SP3-C55-GAL4/VP16 and the MRG5-luciferase constructs was identified according to Example 14.
For the identification of γ-secretase inhibitors, stably double-transfected HEK293 cells (see Example 14) are incubated, in Multi-Well 96 plates, in the presence of the compound(s) under investigation (e.g., compound library screening) at a concentration 10 μM or less in the assay, and luciferase activity is determined 24 hours later. Luciferase activity can be quantified with the Luciferase Assay System kit (Promega), the Bright-Glo Luciferase Assay kit (Promega), or any other method for luciferase quantification. A decrease in luciferase activity reflects a decrease in γ-secretase activity.

Consider two compounds from US7892778B2, “Method of screening for gamma-secretase activity” (Sanofi-Aventis Deutschland GmbH, priority 2003, dated 2011).

Turning to `C[C@H](NC(=O)Cc1cc(F)cc(F)c1)C(=O)N[C@H](C(=O)OC(C)(C)C)c1ccccc1` [DAPT], the IC50 with γ-secretase [1] is 14 nM; with γ-secretase [3], 230 nM. Besides, the Aβ-production entry in the assay with γ-secretase [2] was “inhibited dose-dependently”.

Regarding `CC(C)C[C@H](NC(=O)[C@H](Cc1ccccc1)C[C@@H](O)[C@H](Cc1ccccc1)NC(=O)OC(C)(C)C)C(=O)N[C@@H](Cc1ccccc1)C(N)=O` [L-685,458], the half-inhibitory concentration (IC50) with γ-secretase [1] stood at 19 nM; in the assay with γ-secretase [3], 130 nM. Also, the Aβ-production result with γ-secretase [2] is listed as “inhibited dose-dependently”.
